Results reported in PubChem BioAssay (NCI).
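Five concentrations, 48 hours, 96-well plates. Definition used: TGI = concentration required for complete inhibition of growth.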

Experiments:
Experiment in all cases: NCI tumour cell line growth inhibition, 48 h
HOP-92 NSCLC = tested on: HOP-92 NSCLC
CCRF-CEM leukemia = tested on: CCRF-CEM leukemia
M14 melanoma = tested on: M14 melanoma
786-0 renal = tested on: 786-0 renal
EKVX NSCLC = tested on: EKVX NSCLC
SNB-19 CNS = tested on: SNB-19 CNS
DU-145 prostate = tested on: DU-145 prostate
HOP-62 NSCLC = tested on: HOP-62 NSCLC
KM12 colon = tested on: KM12 colon
UO-31 renal = tested on: UO-31 renal
T-47D breast = tested on: T-47D breast
CAKI-1 renal = tested on: CAKI-1 renal
HCC-2998 colon = tested on: HCC-2998 colon
SF-539 CNS = tested on: SF-539 CNS
U251 CNS = tested on: U251 CNS
A498 renal = tested on: A498 renal
SF-295 CNS = tested on: SF-295 CNS
MDA-MB-231 breast = tested on: MDA-MB-231 breast
RPMI-8226 leukemia = tested on: RPMI-8226 leukemia
SR leukemia = tested on: SR leukemia
RXF 393 renal = tested on: RXF 393 renal
SW-620 colon = tested on: SW-620 colon
OVCAR-5 ovarian = tested on: OVCAR-5 ovarian
OVCAR-4 ovarian = tested on: OVCAR-4 ovarian
NCI-H522 lung = tested on: NCI-H522 lung
SN12C renal = tested on: SN12C renal
NCI-H226 lung = tested on: NCI-H226 lung
MDA-MB-435 = tested on: MDA-MB-435
MDA-N = tested on: MDA-N
K-562 leukemia = tested on: K-562 leukemia
SK-MEL-5 melanoma = tested on: SK-MEL-5 melanoma
HT29 colon = tested on: HT29 colon
NCI-H23 lung = tested on: NCI-H23 lung
ACHN renal = tested on: ACHN renal
SF-268 CNS = tested on: SF-268 CNS
PC-3 prostate = tested on: PC-3 prostate
UACC-257 melanoma = tested on: UACC-257 melanoma
IGROV1 ovarian = tested on: IGROV1 ovarian
HL-60(TB) leukemia = tested on: HL-60(TB) leukemia
HCT-116 colon = tested on: HCT-116 colon
COLO 205 colon = tested on: COLO 205 colon
LOX IMVI melanoma = tested on: LOX IMVI melanoma
SK-MEL-28 melanoma = tested on: SK-MEL-28 melanoma
BT-549 breast = tested on: BT-549 breast
MCF7 breast = tested on: MCF7 breast
NCI/ADR-RES ovarian = tested on: NCI/ADR-RES ovarian
SK-OV-3 ovarian = tested on: SK-OV-3 ovarian
HCT-15 colon = tested on: HCT-15 colon
SNB-75 CNS = tested on: SNB-75 CNS
OVCAR-3 ovarian = tested on: OVCAR-3 ovarian
SK-MEL-2 melanoma = tested on: SK-MEL-2 melanoma
NCI-H460 lung = tested on: NCI-H460 lung
TK-10 renal = tested on: TK-10 renal
OVCAR-8 ovarian = tested on: OVCAR-8 ovarian
MOLT-4 leukemia = tested on: MOLT-4 leukemia
HS 578T breast = tested on: HS 578T breast
A549 NSCLC = tested on: A549 NSCLC
UACC-62 melanoma = tested on: UACC-62 melanoma

## C=C(Cl)COC(=O)Nc1cccc(Cl)c1
HOP-92 NSCLC
  TGI: 64.9 µM
CCRF-CEM leukemia
  TGI: > 100 µM
M14 melanoma
  TGI: > 100 µM
786-0 renal
  TGI: 92.2 µM
EKVX NSCLC
  TGI: 59.1 µM
SNB-19 CNS
  TGI: > 100 µM
DU-145 prostate
  TGI: > 100 µM
HOP-62 NSCLC
  TGI: > 100 µM
KM12 colon
  TGI: > 100 µM
UO-31 renal
  TGI: 44.9 µM
T-47D breast
  TGI: > 100 µM
CAKI-1 renal
  TGI: > 100 µM
HCC-2998 colon
  TGI: > 100 µM
SF-539 CNS
  TGI: > 100 µM
U251 CNS
  TGI: > 100 µM
A498 renal
  TGI: 90.4 µM
SF-295 CNS
  TGI: 96.2 µM
MDA-MB-231 breast
  TGI: > 100 µM
RPMI-8226 leukemia
  TGI: > 100 µM
SR leukemia
  TGI: > 100 µM
RXF 393 renal
  TGI: 77.6 µM
SW-620 colon
  TGI: > 100 µM
OVCAR-5 ovarian
  TGI: > 100 µM
OVCAR-4 ovarian
  TGI: > 100 µM
NCI-H522 lung
  TGI: 83.6 µM
SN12C renal
  TGI: > 100 µM
NCI-H226 lung
  TGI: > 100 µM
MDA-MB-435
  TGI: > 100 µM
MDA-N
  TGI: > 100 µM
K-562 leukemia
  TGI: > 100 µM
SK-MEL-5 melanoma
  TGI: 39.6 µM
HT29 colon
  TGI: > 100 µM
NCI-H23 lung
  TGI: 90.2 µM
ACHN renal
  TGI: > 100 µM
SF-268 CNS
  TGI: > 100 µM
PC-3 prostate
  TGI: 84.6 µM
UACC-257 melanoma
  TGI: > 100 µM
IGROV1 ovarian
  TGI: > 100 µM
HL-60(TB) leukemia
  TGI: 94.6 µM
HCT-116 colon
  TGI: 78.7 µM
COLO 205 colon
  TGI: > 100 µM
LOX IMVI melanoma
  TGI: > 100 µM
SK-MEL-28 melanoma
  TGI: > 100 µM
BT-549 breast
  TGI: 87.2 µM
MCF7 breast
  TGI: > 100 µM
NCI/ADR-RES ovarian
  TGI: 99.7 µM
SK-OV-3 ovarian
  TGI: > 100 µM
HCT-15 colon
  TGI: > 100 µM
SNB-75 CNS
  TGI: 83.7 µM
OVCAR-3 ovarian
  TGI: > 100 µM
SK-MEL-2 melanoma
  TGI: 58.5 µM
NCI-H460 lung
  TGI: > 100 µM
TK-10 renal
  TGI: > 100 µM
OVCAR-8 ovarian
  TGI: > 100 µM
MOLT-4 leukemia
  TGI: > 100 µM
HS 578T breast
  TGI: > 100 µM
A549 NSCLC
  TGI: > 100 µM
UACC-62 melanoma
  TGI: 59.5 µM

## N#CN=C1c2ccccc2C(=NC#N)c2cc(CO)ccc21
HOP-92 NSCLC
  TGI: 77 µM
M14 melanoma
  TGI: > 100 µM
786-0 renal
  TGI: > 100 µM
EKVX NSCLC
  TGI: > 100 µM
SNB-19 CNS
  TGI: > 100 µM
DU-145 prostate
  TGI: 69 µM
HOP-62 NSCLC
  TGI: > 100 µM
KM12 colon
  TGI: > 100 µM
UO-31 renal
  TGI: > 100 µM
T-47D breast
  TGI: 89.2 µM
CAKI-1 renal
  TGI: > 100 µM
SF-539 CNS
  TGI: > 100 µM
U251 CNS
  TGI: > 100 µM
A498 renal
  TGI: 74.4 µM
SF-295 CNS
  TGI: > 100 µM
MDA-MB-231 breast
  TGI: > 100 µM
RPMI-8226 leukemia
  TGI: 31 µM
SR leukemia
  TGI: 43 µM
RXF 393 renal
  TGI: 81.5 µM
SW-620 colon
  TGI: > 100 µM
OVCAR-5 ovarian
  TGI: > 100 µM
OVCAR-4 ovarian
  TGI: > 100 µM
NCI-H522 lung
  TGI: > 100 µM
SN12C renal
  TGI: > 100 µM
NCI-H226 lung
  TGI: > 100 µM
MDA-MB-435
  TGI: 80.3 µM
MDA-N
  TGI: > 100 µM
K-562 leukemia
  TGI: 80.7 µM
SK-MEL-5 melanoma
  TGI: > 100 µM
HT29 colon
  TGI: > 100 µM
NCI-H23 lung
  TGI: > 100 µM
ACHN renal
  TGI: 74 µM
SF-268 CNS
  TGI: > 100 µM
PC-3 prostate
  TGI: > 100 µM
UACC-257 melanoma
  TGI: > 100 µM
IGROV1 ovarian
  TGI: 90.7 µM
HL-60(TB) leukemia
  TGI: 60.7 µM
HCT-116 colon
  TGI: > 100 µM
LOX IMVI melanoma
  TGI: > 100 µM
SK-MEL-28 melanoma
  TGI: > 100 µM
BT-549 breast
  TGI: 95.6 µM
MCF7 breast
  TGI: 83.1 µM
NCI/ADR-RES ovarian
  TGI: 83.6 µM
HCT-15 colon
  TGI: > 100 µM
SNB-75 CNS
  TGI: 60.7 µM
OVCAR-3 ovarian
  TGI: > 100 µM
SK-MEL-2 melanoma
  TGI: > 100 µM
NCI-H460 lung
  TGI: > 100 µM
TK-10 renal
  TGI: > 100 µM
OVCAR-8 ovarian
  TGI: > 100 µM
MOLT-4 leukemia
  TGI: 59 µM
HS 578T breast
  TGI: > 100 µM
A549 NSCLC
  TGI: > 100 µM
